Measured values taken from patent publication US10131690B2, “C6S specific transporter molecules” (PHI PHARMA SA, priority 2014, dated 2018).
Where a SMILES comes first, the peptide text is derived from it. Where no end group is shown, it is not given here. [ ]: non-standard residue; d: D form. 3'AdT = not defined here

Legend:
[1] = stability in fetal calf serum (estimation of in vivo stability); format: in vitro ADME; conditions: 37° C.; for degradation in fetal calf serum: 6 hr
Protocol: The stability of peptides of the invention was estimated by mixing the peptides with fetal calf serum and incubating at 37° C. for 6 hr. Samples were tested at both 0 and 6 hours.

MDCK cells = test: viability of MDCK cell cultures by trypan blue exclusion; format: cell-based; conditions: 96 hour incubation, 0.5 μM to 10 μM, FIG. 9
Protocol: The activity of peptides of the invention as targeting moieties was tested in vitro in preliminary studies using cells lines expressing C6S. The nucleoside analog 3′ amino deoxythymidine (3′AdT) was conjugated to the amino-terminus of the peptide “RYK” (RYKvFIKYRh (SEQ ID NO:8)) using a single D-Glu residue (3′AdT-e-RYK).
Confluent cultures of MDCK were passaged at 1/20 dilution and exponentionally growing cells were incubated for 96 hours with concentrations of the nucleoside analog conjugates ranging from 0.5 μM to 10 μM. Viability was subsequently assessed using trypan blue exclusion.

[2] = test system: heparan sulfate (HS), chondroitin-4-sulfate (C4S), keratin sulfate (KS), HA; test: modified ELISA, binding to C6S compared with other proteoglycans; conditions: KS (FIG. 5), HS and HA (FIG. 6B)
Protocol: (§1) The binding of the nine-mer peptides of the invention to C6S as predicted by the models, in particular, as compared to the binding to other proteoglycans was tested using a modified ELISA protocol. ELISA plates were coated overnight with 1 mg/ml of heparin sulfate (HS), chondroitin-4-sulfate (C4S), chondroitin-6-sulfate (C6S) or keratin sulfate (KS) in PBS. The wells were then washed with PBS and incubated for 1 hour at room temperature with 1 mg/ml of an exemplary peptide of the invention having the sequence RYKvFIKYRh (“RYK-C6S”; SEQ ID NO:7) or a standard TAT peptide. The plates were then thoroughly washed with PBS and subsequently photographed with a LUMASCOPE™ luminescent microscope. Images were then quantified using the ImageJ software (FIG. 5).
(§2) The impact of sequence variation on specific binding was also investigated with select peptides using the above described modified ELISA.

[3] = test system: chondroitin-6-sulfate (C6S); test: modified ELISA, binding of peptides to plate-coated C6S; conditions: plates coated with 1 mg/ml C6S; 1 mg/ml peptide, 1 hour, room temperature; FIG. 5, 6A, 6B
Protocol: as §1
The same modified ELISA protocol was used to examine the impact on the specific binding to C6S by modifying the freely-selectable positions 2, 4, 6, 8 and (5 or 7).
as §2

## N=C(N)NCCC[C@H](NC(=O)[C@H](Cc1ccc(O)cc1)NC(=O)[C@H](CCCCN)NC(=O)[C@H](Cc1c[nH]c2ccccc12)NC(=O)[C@H](CO)NC(=O)CNC(=O)[C@H](CCCCN)NC(=O)[C@H](Cc1ccccc1)NC(=O)[C@@H](N)CCCNC(=N)N)C(=O)O [RFKGSWKYR] (H-RFKGSWKYR-OH; N-terminus and C-terminus assumed)
[1]
  degradation in fetal calf serum: completely degraded

## CC[C@H](C)[C@H](NC(=O)[C@H](Cc1ccccc1)NC(=O)[C@H](NC(=O)[C@H](CCCCN)NC(=O)[C@H](Cc1ccc(O)cc1)NC(=O)[C@@H](N)CCCNC(=N)N)C(C)C)C(=O)N[C@@H](CCCCN)C(=O)N[C@@H](Cc1ccc(O)cc1)C(=O)N[C@@H](CCCNC(=N)N)C(=O)N[C@H](Cc1c[nH]cn1)C(=O)O [RYK-C6S, RYKvFIKYRh] (H-RYK[dV]FIKYR[dH]-OH; N-terminus and C-terminus assumed)
[1]
  degradation in fetal calf serum: no degradation
[1]; fetal calf serum, 6 hours
  remaining at 6 h: 100%

## D-linked conjugate: 3′AdT conjugated to the amino-terminus of the peptide RYK (RYKvFIKYRh) using a single D-Glu residue ({3'AdT}-[dE]RYK[dV]FIKYR[dH]; reading uncertain; also: printed as RYKvFIKYRh)
MDCK cells
  concentration with substantial effects on viability: ≥ 0.5 µM

## RGKPRFYQR
[2]
  selectivity of binding for C6S over other proteoglycans: either eliminated binding activity to any proteoglycan or eliminated the specificity to C6S

## RKKRRQRR (Artificial TAT peptide control) [standard TAT peptide]
[3]
  binding to C6S: increases in binding that were likely non-selective

## RRRRRRRRR [pure arginine 9-mer]
[3]
  binding to C6S: increases in binding that were likely non-selective

## RYFvRIKYR (RYF[dV]RIKYR) [control peptide, replacement of Lys3 with a Phe]
[3]
  binding to C6S: eliminated binding to C6S

## RYKvFIKPRh (RYK[dV]FIKPR[dH]) [control peptide with proline at position 8]
[3]
  binding to C6S: eliminated binding activity
